# Measured values published in patent US4129737A, “Process for the preparation of an 8-alkyl-5-oxo-5,8-dihydro-pyrido(2,3-d)pyrimidine-6-carboxylic acid” (priority 1972, dated 1978).
# Read-outs that look alike come from different tables or passages of the source.
# Key:
# dog = conditions: in vivo, 100 mg/kg/day
# Esch. coli. LRB 67 = assay: Average MIC, solid medium (nutrient agar) dilution method; conditions: Escherichia coli, 18 h, read-out: minimum inhibitory concentration, average
# Bord. bronchiseptica = assay: Minimum inhibitory concentration by agar dilution, Bord. bronchiseptica; assay type: cell-based; conditions: Bordetella bronchiseptica, 37° C., 18 hours, read-out: minimum inhibitory concentration (M.I.C.)
# Protocol: (§1) (a) Trypticase soya medium (T.S.A.), which is very suitable for culturing the majority of microorganisms; it has the following composition:
# (§2) (b) Ordinarily nutrient agar (N.A.), which is less rich in nutrients, corresponds to the following formulation: […]
# (§3) Table I gives the minimum inhibitory concentrations (expressed in μg/cm^3) for the various microorganisms tested on each medium.
# (§4) The products were tested on three Gram positive microorganisms (1 to 3) […] and on 10 Gram negative microorganisms (4 to 13).
# (§5) Table (II) gives the minimum inhibitory concentrations of the compounds of Examples XII to XVI, determined on the agar medium, N.A., and expressed in μg/cm^3.
# B. subtilis = assay: Minimum inhibitory concentration by agar dilution, B. subtilis; assay type: cell-based; conditions: Bacillus subtilis, 37° C., 18 hours, read-out: minimum inhibitory concentration (M.I.C.)
# Protocol: as §1, §2, §3, §4, §5
# Ps. aeruginosa A22 = assay: Average MIC, solid medium (nutrient agar) dilution method; conditions: Pseudomonas aeruginosa, A22, 18 h, read-out: minimum inhibitory concentration, average
# Arizona 6211 = assay: as above; conditions: 18 h, read-out: minimum inhibitory concentration, average
# Providencia 0223 = assay: as above; conditions: Providencia, 0223, 18 h, read-out: minimum inhibitory concentration, average
# Staphylococcus 209P = assay: as above; conditions: 18 h, read-out: minimum inhibitory concentration, average
# Esch. coli. 95 I.S.M. = assay: as above; conditions: Escherichia coli, 18 h, read-out: minimum inhibitory concentration, average
# Sh. sonnei = assay: Minimum inhibitory concentration by agar dilution, Sh. sonnei; assay type: cell-based; conditions: Shigella sonnei, 37° C., 18 hours, read-out: minimum inhibitory concentration (M.I.C.)
# Protocol: as §1, §2, §3, §4, §5
# Esch. coli. Cho = assay: Average MIC, solid medium (nutrient agar) dilution method; conditions: Escherichia coli, 18 h, read-out: minimum inhibitory concentration, average
# S. enteritidis DANYZ = assay: as above; conditions: Salmonella enterica, 18 h, read-out: minimum inhibitory concentration, average
# in vivo = conditions: dog, 2.5 mg/kg
# Protocol: In an experiment involving a 20 kg dog, 50 mg of the compound of Example VIII, corresponding to 2.5 mg/kg, were administered by means of a probang. The urine of the animal was removed by catheterisation at the 3rd and at the 7th hour, and the anti-bacterial activity of these samples was measured, taking the compound administered as the reference product.
# B. pyocyaneus A22 = assay: Minimum inhibitory concentration by agar dilution, B. pyocyaneus A22; assay type: cell-based; conditions: Pseudomonas aeruginosa, A22, 37° C., 18 hours, read-out: minimum inhibitory concentration (M.I.C.)
# Protocol: as §1, §2, §3, §4, §5
# Salm. typhi = assay: Minimum inhibitory concentration by agar dilution, Salm. typhi; assay type: cell-based; conditions: Salmonella enterica, 18 h
# Protocol: as §1, §2, §3, §4, §5
# mice = assay: Oral toxicity in mice; assay type: in vivo; conditions: doses as high as 4 g per kilogram
# [1] = Toxicity, overall statement; conditions: in vivo
# Klebs. pneumoniae = assay: Minimum inhibitory concentration by agar dilution, Klebs. pneumoniae; assay type: cell-based; conditions: Klebsiella pneumoniae, 37° C., 18 hours, read-out: minimum inhibitory concentration (M.I.C.)
# Protocol: as §1, §2, §3, §4, §5
# [2] = N.A. (nutrient agar, pH 6.8), Table I
# [3] = T.S.A. (trypticase soya medium, pH 7.3)
smiles,measurement,setting,value
"CCn1cc(C(=O)O)c(=O)c2cnc(N3CCNCC3)nc21 [Example VIII, 2-Piperazino-5-oxo-8-ethyl-5,8-dihydro-pyrido(2,3-d)pyrimidine-6-carboxylicacid]",toxic signs,dog,without showing any toxic signs
same,MIC,Esch. coli. LRB 67,1.2 µg/mL
same,MIC,Bord. bronchiseptica; [2],12.5 µg/mL
same,MIC,Bord. bronchiseptica; [3],50 µg/mL
same,MIC,B. subtilis; [2],3.1 µg/mL
same,MIC,B. subtilis; [3],6.2 µg/mL
same,MIC,Ps. aeruginosa A22,12.5 µg/mL
same,MIC,Arizona 6211,1.26 µg/mL
same,MIC,Providencia 0223,16.2 µg/mL
same,MIC,Staphylococcus 209P,6.22 µg/mL
same,MIC,Esch. coli. 95 I.S.M.,5.14 µg/mL
same,MIC,Sh. sonnei; [2],0.8 µg/mL
same,MIC,Sh. sonnei; [3],0.8 µg/mL
same,MIC,Esch. coli. Cho,2.66 µg/mL
same,MIC,S. enteritidis DANYZ,1.2 µg/mL
same,urinary concentration at 7 hours relative to minimum inhibitory concentrations,in vivo,still very much greater than the minimum inhibitory concentrations
same,concentration at 3 h,in vivo; po,185 µg/mL
same,concentration at 7 h,in vivo; po,90 µg/mL
same,MIC,B. pyocyaneus A22; [2],25 µg/mL
same,MIC,B. pyocyaneus A22; [3],12.5 µg/mL
same,MIC,"Salm. typhi; pH 6.8, read-out: minimum inhibitory concentration (M.I.C.)",6.2 µg/mL
same,MIC,"Salm. typhi; pH 7.3, read-out: minimum inhibitory concentration (M.I.C.)",1.6 µg/mL
same,deaths,mice,no deaths were observed
same,toxicity,[1],very low toxicity
same,MIC,Klebs. pneumoniae; [2],0.8 µg/mL
same,MIC,Klebs. pneumoniae; [3],1.6 µg/mL
